According to ChEMBL document CHEMBL3885861, “Open TG-GATES”:

Species on record: Rattus norvegicus
Test: Open TG-GATES - Regimen: Daily Repeat
Assay type: toxicity, organism-based, Sprague-Dawley
Design: regimen Daily Repeat, gender Male, age 6 weeks
Details: in vivo, po, 300 mg/kg, route gavage, dose level High; for APTT / Bas / Eos / Fbg / Hb / Ht / Lym / MCH / MCHC / MCV / Mono / Neu / PT / Plat / RBC / Ret / WBC: tissue Blood; for ALP / ALT / AST / BUN / CRE / DBIL / GLC / IP / K / Na / PL / RALB / TBIL / TC / TG / TP / gamma-GTP: tissue Plasma

NS(=O)(=O)c1cc(C(=O)O)c(NCc2ccco2)cc1Cl [FUROSEMIDE]
TERMINAL_BW (72 h, time 3 day): 189.1 g | APTT (72 h, time 3 day): 20.9 s | Bas (72 h, time 3 day): 0.4% | Eos (72 h, time 3 day): 0.8% | Fbg (72 h, time 3 day): 315.2 mg/dL | Hb (72 h, time 3 day): 16.5 g/dL | Ht (72 h, time 3 day): 47% | Lym (72 h, time 3 day): 80% | MCH (72 h, time 3 day): 20.8 pg | MCHC (72 h, time 3 day): 35.1% | MCV (72 h, time 3 day): 59.3 fL | Mono (72 h, time 3 day): 2.6% | Neu (72 h, time 3 day): 15.8% | PT (72 h, time 3 day): 15.6 s | Plat (72 h, time 3 day): 124.2 x10_4/uL | RBC (72 h, time 3 day): 794 x10_4/ul | Ret (72 h, time 3 day): 2% | WBC (72 h, time 3 day): 116.4 x10_2/uL | ALP (72 h, time 3 day): 1596.8 IU/L | ALT (72 h, time 3 day): 46.2 IU/L | AST (72 h, time 3 day): 67.4 IU/L | BUN (72 h, time 3 day): 41.8 mg/dL | CRE (72 h, time 3 day): 0.2 mg/dL | DBIL (72 h, time 3 day): 0.02 mg/dL | GLC (72 h, time 3 day): 164.6 mg/dL | IP (72 h, time 3 day): 5.7 mg/dL | K (72 h, time 3 day): 3 meq/L | Na (72 h, time 3 day): 136.4 meq/L | PL (72 h, time 3 day): 169.6 mg/dL | RALB (72 h, time 3 day): 2.9 g/dL | TBIL (72 h, time 3 day): 0.082 mg/dL | TC (72 h, time 3 day): 90.2 mg/dL | TG (72 h, time 3 day): 48.4 mg/dL | TP (72 h, time 3 day): 6.2 g/dL | gamma-GTP (72 h, time 3 day): 1.2 IU/L | TERMINAL_BW ([…], time 7 day): 216.8 g | TERMINAL_BW ([…], time 14 day): 243.1 g | TERMINAL_BW ([…], time 28 day): 317.2 g | APTT ([…], time 7 day): 16.2 s | Bas ([…], time 7 day): 0.4% | Eos ([…], time 7 day): 1% | Fbg ([…], time 7 day): 291 mg/dL | Hb ([…], time 7 day): 15 g/dL | Ht ([…], time 7 day): 42.7% | Lym ([…], time 7 day): 81.6% | MCH ([…], time 7 day): 20.8 pg | MCHC ([…], time 7 day): 35.2% | MCV ([…], time 7 day): 59.3 fL | Mono ([…], time 7 day): 2.2% | Neu ([…], time 7 day): 14.4% | PT ([…], time 7 day): 16.2 s | Plat ([…], time 7 day): 97.2 x10_4/uL | RBC ([…], time 7 day): 720.2 x10_4/ul | Ret ([…], time 7 day): 2.4% | WBC ([…], time 7 day): 121.9 x10_2/uL | APTT ([…], time 14 day): 17 s | Bas ([…], time 14 day): 0.5% | Eos ([…], time 14 day): 1% | Fbg ([…], time 14 day): 309.5 mg/dL | Hb ([…], time 14 day): 15.3 g/dL | Ht ([…], time 14 day): 43.5% | Lym ([…], time 14 day): 80% | MCH ([…], time 14 day): 19.9 pg | MCHC ([…], time 14 day): 35.2% | MCV ([…], time 14 day): 56.5 fL | Mono ([…], time 14 day): 2% | Neu ([…], time 14 day): 15.5% | PT ([…], time 14 day): 15.9 s | Plat ([…], time 14 day): 102.8 x10_4/uL | RBC ([…], time 14 day): 769.5 x10_4/ul | Ret ([…], time 14 day): 3.6% | WBC ([…], time 14 day): 113 x10_2/uL | APTT ([…], time 28 day): 16 s | Bas ([…], time 28 day): 1% | Eos ([…], time 28 day): 1.2% | Fbg ([…], time 28 day): 265.8 mg/dL | Hb ([…], time 28 day): 15.6 g/dL | Ht ([…], time 28 day): 45.6% | Lym ([…], time 28 day): 80.8% | MCH ([…], time 28 day): 19.3 pg | MCHC ([…], time 28 day): 34.3% | MCV ([…], time 28 day): 56.5 fL | Mono ([…], time 28 day): 2% | Neu ([…], time 28 day): 15.2% | PT ([…], time 28 day): 16 s | Plat ([…], time 28 day): 91 x10_4/uL | RBC ([…], time 28 day): 806.5 x10_4/ul | Ret ([…], time 28 day): 2% | WBC ([…], time 28 day): 106.7 x10_2/uL | ALP ([…], time 7 day): 1629.6 IU/L | ALT ([…], time 7 day): 50.2 IU/L | AST ([…], time 7 day): 71 IU/L | BUN ([…], time 7 day): 27 mg/dL | CRE ([…], time 7 day): 0.2 mg/dL | DBIL ([…], time 7 day): 0.018 mg/dL | GLC ([…], time 7 day): 169.8 mg/dL | IP ([…], time 7 day): 4.9 mg/dL | K ([…], time 7 day): 3.5 meq/L | Na ([…], time 7 day): 141.8 meq/L | PL ([…], time 7 day): 164.8 mg/dL | RALB ([…], time 7 day): 2.7 g/dL | TBIL ([…], time 7 day): 0.062 mg/dL | TC ([…], time 7 day): 80.6 mg/dL | TG ([…], time 7 day): 67 mg/dL | TP ([…], time 7 day): 5.9 g/dL | gamma-GTP ([…], time 7 day): 0.4 IU/L | ALP ([…], time 14 day): 1713 IU/L | ALT ([…], time 14 day): 48.2 IU/L | AST ([…], time 14 day): 79 IU/L | BUN ([…], time 14 day): 28.8 mg/dL | CRE ([…], time 14 day): 0.2 mg/dL | DBIL ([…], time 14 day): 0.0175 mg/dL | GLC ([…], time 14 day): 174 mg/dL | IP ([…], time 14 day): 5.5 mg/dL | K ([…], time 14 day): 3.4 meq/L | Na ([…], time 14 day): 142.8 meq/L | PL ([…], time 14 day): 171.8 mg/dL | RALB ([…], time 14 day): 2.7 g/dL | TBIL ([…], time 14 day): 0.0575 mg/dL | TC ([…], time 14 day): 83 mg/dL | TG ([…], time 14 day): 84.2 mg/dL | TP ([…], time 14 day): 5.9 g/dL | gamma-GTP ([…], time 14 day): 0.5 IU/L | ALP ([…], time 28 day): 1444.8 IU/L | ALT ([…], time 28 day): 44.2 IU/L | AST ([…], time 28 day): 72.2 IU/L | BUN ([…], time 28 day): 30.8 mg/dL | CRE ([…], time 28 day): 0.2 mg/dL | DBIL ([…], time 28 day): 0.0175 mg/dL | GLC ([…], time 28 day): 174.8 mg/dL | IP ([…], time 28 day): 5.1 mg/dL | K ([…], time 28 day): 3.5 meq/L | Na ([…], time 28 day): 144.5 meq/L | PL ([…], time 28 day): 150.2 mg/dL | RALB ([…], time 28 day): 2.7 g/dL | TBIL ([…], time 28 day): 0.055 mg/dL | TC ([…], time 28 day): 69.8 mg/dL | TG ([…], time 28 day): 92.2 mg/dL | TP ([…], time 28 day): 6 g/dL | gamma-GTP ([…], time 28 day): 0.5 IU/L
